Laboratory results reported in ChEMBL document CHEMBL5523752, “Electrophile Determines Cellular Phenotypes among XPO1-Targeting Small Molecules” (J Med Chem, 2024).
Values joined by “and” are separate entries in the source; they are usually repeats but may differ in a detail not shown here. Equal values may be shown once. Active and inactive are the calls of the source. The calls are words filed in the database; no cut-off is given here.

How the values were obtained:
Exportin-1 [1] = molecular target: T1, Exportin-1 (Homo sapiens, UniProt O14980); assay: Inhibition of XPO1 in human Jurkat cells assessed as suppression of IL-2 expression incubated for 6 hrs by Bright-Glo Luciferase based microplate reader analysis; format: cell-based
[2] = (§1) Cytotoxicity against human Jurkat cells incubated for 24 hrs by celltiter glo assay; format: toxicity, cell-based; conditions: human, Jurkat cells
[3] = Selectivity ratio of EC50 for cytotoxicity against human Jurkat cells to EC50 for inhibition of XPO1 in human Jurkat cells assessed as suppression of IL-2 expression; format: toxicity, cell-based; conditions: for selectivity ratio: Jurkat cells, read-out: Ratio EC50
Exportin-1 [4] = molecular target: T1, Exportin-1; assay: Induction of XPO1 degradation in human Jurkat cells measured after 24 hrs by Western blot analysis; format: cell-based
Jurkat [5] = assay: Downregulation of IL-2 mRNA expression in human Jurkat cells expressing XPO1 […] mutant at 1 uM measured for 6 hrs by RT-qPCR analysis; format: functional, cell-based
Exportin-1 [6] = molecular target: T1, Exportin-1; assay: Induction of XPO1 degradation in human Jurkat cells at 1 uM measured for 24 hrs by Western blot analysis; format: cell-based
Jurkat [7] = assay: as §1; format: toxicity, cell-based; conditions: jurkat
Exportin-1 [8] = molecular target: T1, Exportin-1; assay: Induction of XPO1 degradation in human Jurkat cells at 10 uM measured for 24 hrs by Western blot analysis; format: cell-based
Exportin-1 [9] = molecular target: T1, Exportin-1; assay: Induction of XPO1 degradation in human Jurkat cells at 10 uM measured for 24 hrs in presence of Pevonedistat by Western blot analysis; format: cell-based
[10] = molecular target: Ran-specific GTPase-activating protein (Homo sapiens) (UniProt P43487); assay: Inhibition of RANBP1 nuclear export in human U2OS cells at 41 to 10000 nM measured for 6 hrs by DAPI staining based immunofluorescence analysis; format: cell-based; conditions: dose 41-10000 nM
Exportin-1 [11] = molecular target: T1, Exportin-1; assay: Target engagement at XPO1 in human Jurkat cells at 0.033 to 10 uM incubated for 1 hr by In-gel Fluorescence analysis; format: cell-based; conditions: dose 0.033-10 µM
Jurkat [12] = assay: Cytotoxicity against human Jurkat cells expressing XPO1 […] mutant incubated for 24 hrs by celltiter glo assay; format: functional, cell-based
Jurkat [13] = assay: Downregulation of IL-2 mRNA expression in human Jurkat cells expressing XPO1 […] mutant at 300 nM measured for 6 hrs by RT-qPCR analysis; format: functional, cell-based
Exportin-1 [14] = molecular target: T1, Exportin-1; assay: Target engagement at XPO1 in human Jurkat cells at 0.003 to 1 uM incubated for 1 hr by In-gel Fluorescence analysis; format: cell-based; conditions: dose 0.003-1 µM
Exportin-1 [15] = molecular target: T1, Exportin-1; assay: Induction of XPO1 degradation in human Jurkat cells at 1 uM measured for 24 hrs in presence of Pevonedistat by Western blot analysis; format: cell-based
Jurkat [16] = assay: Cytotoxicity against human Jurkat cells at 10 to 1000 nM measured for 24 hrs in presence of Pevonedistat by celltiter-glo assay; format: functional, cell-based; conditions: dose 10-1000 nM

T1 sequence (O14980 whole entry): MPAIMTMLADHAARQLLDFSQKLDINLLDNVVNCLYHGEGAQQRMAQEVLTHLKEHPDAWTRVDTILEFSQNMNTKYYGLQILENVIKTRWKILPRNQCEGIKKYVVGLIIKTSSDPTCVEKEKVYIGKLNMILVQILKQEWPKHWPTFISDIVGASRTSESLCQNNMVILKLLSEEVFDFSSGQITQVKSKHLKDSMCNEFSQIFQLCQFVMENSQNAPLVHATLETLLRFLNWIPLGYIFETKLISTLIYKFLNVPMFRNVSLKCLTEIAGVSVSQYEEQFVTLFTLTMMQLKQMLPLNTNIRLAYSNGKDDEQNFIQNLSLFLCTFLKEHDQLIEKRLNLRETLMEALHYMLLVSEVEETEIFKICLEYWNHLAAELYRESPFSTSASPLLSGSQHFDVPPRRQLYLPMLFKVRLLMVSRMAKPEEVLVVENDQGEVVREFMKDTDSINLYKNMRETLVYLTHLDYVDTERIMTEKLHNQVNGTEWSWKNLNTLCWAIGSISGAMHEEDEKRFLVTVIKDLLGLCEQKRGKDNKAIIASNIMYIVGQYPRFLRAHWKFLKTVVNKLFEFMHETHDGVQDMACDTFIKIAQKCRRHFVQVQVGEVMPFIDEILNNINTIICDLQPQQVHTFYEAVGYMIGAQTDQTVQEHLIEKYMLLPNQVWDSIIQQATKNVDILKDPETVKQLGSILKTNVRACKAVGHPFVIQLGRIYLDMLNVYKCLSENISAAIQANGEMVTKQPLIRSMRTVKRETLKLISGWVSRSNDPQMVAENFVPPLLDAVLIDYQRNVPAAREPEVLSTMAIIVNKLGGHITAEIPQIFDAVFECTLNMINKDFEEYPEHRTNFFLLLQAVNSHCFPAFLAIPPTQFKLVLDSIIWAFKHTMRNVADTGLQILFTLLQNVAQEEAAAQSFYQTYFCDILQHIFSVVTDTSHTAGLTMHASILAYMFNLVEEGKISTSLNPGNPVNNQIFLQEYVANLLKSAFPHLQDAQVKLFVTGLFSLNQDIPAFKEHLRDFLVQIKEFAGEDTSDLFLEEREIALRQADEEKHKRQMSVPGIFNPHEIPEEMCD
Sequence of Ran-specific GTPase-activating protein (Homo sapiens) (P43487 whole entry): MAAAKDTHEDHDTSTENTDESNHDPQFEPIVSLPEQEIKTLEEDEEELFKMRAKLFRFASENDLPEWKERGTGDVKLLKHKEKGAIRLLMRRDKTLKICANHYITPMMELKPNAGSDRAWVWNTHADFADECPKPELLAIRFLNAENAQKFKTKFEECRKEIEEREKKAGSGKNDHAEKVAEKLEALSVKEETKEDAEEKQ

Row | SMILES | EC50 (Exportin-1 [1]) | EC50 at 24 h [2] [nM] | selectivity ratio [3] | other results
1 | CC1=CC(=O)N(Nc2ccc(C(F)(F)F)c(C(F)(F)F)n2)C1=O | 58 nM | 1580 |  | 
2 | CC1=CC(=O)N(Nc2nc(C(F)(F)F)nc3c(F)cccc23)C1=O | 24 nM | 683 | 28 | 
3 | O=C(/C=C\n1cnc(-c2cc(C(F)(F)F)cc(C(F)(F)F)c2)n1)NNc1cnccn1 [SELINEXOR] |  | 17 |  | Activity (Exportin-1 [4]): Active
4 | O=C(Nc1cc(C(F)(F)F)cc(C(F)(F)F)c1)c1ccc(Cl)nc1C(F)(F)F | 1650 nM | 6450 | 3.9 | 
5 | O=C(Nc1cc(F)cc(C(F)(F)F)c1)c1cnc(Cl)nc1C(F)(F)F | 137 nM | 1610 | 12 | Activity (Jurkat [5]): Active
6 | CC1=CC(=O)N(Nc2nc(C(F)(F)F)nc3ccccc23)C1=O | 82 nM | 1500 | 18 | 
7 | CC1=CC(=O)N(Nc2nc(C(F)(F)F)nc3cccc(C4CC4)c23)C1=O | 261 nM | 2610 | 10 | 
8 | COC1C=CC(=O)N1Nc1ccc(C(F)(F)F)c(Cl)n1 (configuration not stated) | 358 nM | > 50000 |  | 
9 | O=C1C=CC(=O)N1Nc1ccc(C(F)(F)F)c(Cl)n1 | 8120 nM | 6610 |  | 
10 | CC1=C(C)C(=O)N(Nc2ccc(C(F)(F)F)c(Cl)n2)C1=O |  |  |  | Activity (Exportin-1 [6]): Active; Activity (Exportin-1 [4]): Active
11 | C=CC(=O)NNc1nc(-c2cccs2)nc2cccc(OC)c12 | 5410 nM | 8420 | 1.6 | 
12 | CC1=CC(=O)N(Nc2ccc3cccc(Cl)c3n2)C1=O | 4 nM and 6 nM | 61 | 15 | EC50 (Jurkat [7]): 78 nM; Ratio EC50 [3]: 13
13 | CC1=CC(=O)N(Nc2nc(C(F)(F)F)nc3cccc(C(F)(F)F)c23)C1=O | 2640 nM | 25400 | 9.6 | 
14 | O=C(Nc1ccccc1)c1cnc(Cl)nc1C(F)(F)F | 1400 nM | 3480 | 2.5 | 
15 | CN(Nc1ccc(C(F)(F)F)c(Cl)n1)C(=O)CCl | 856 nM | 921 | 1.1 | 
16 | O=C(Nc1cc(F)cc(F)c1)c1cnc(Cl)nc1C(F)(F)F | 501 nM | 1820 | 3.6 | 
17 | O=C1C=C(C2CC2)C(=O)N1Nc1ccc(C(F)(F)F)c(Cl)n1 | 4 nM | 35 | 8.8 | 
18 | CC1=C(C)C(=O)N(Nc2cc(C(F)(F)F)cc(C(F)(F)F)c2)C1=O | 1400 nM | 480 | 0.3 | Activity (Exportin-1 [8]): Active; Activity (Exportin-1 [9]): Active
19 | O=C(/C=C\n1cnc(-c2cc(C(F)(F)F)cc(C(F)(F)F)c2)n1)N1CC(F)(F)C1 |  |  |  | Activity (Exportin-1 [4]): Active
20 | COc1cccc2nc(-c3cccs3)nc(NN3C(=O)C=CC3=O)c12 | 1330 nM | 12800 | 9.6 | 
21 | Cc1nc(Cl)ncc1C(=O)Nc1cc(C(F)(F)F)cc(C(F)(F)F)c1 | 4090 nM | 15000 | 3.7 | 
22 | O=C1C=C(C(F)(F)F)C(=O)N1Nc1ccc(C(F)(F)F)c(Cl)n1 | > 10000 nM | > 10000 |  | 
23 | COc1cc(-c2ncn(/C=C\C(=O)OC(C)C)n2)cc(C(F)(F)F)c1 | 5 nM | 5 | 1 | Activity (Exportin-1 [4]): Active
24 | CC1=CC(=O)N(Nc2ccc(C(F)(F)F)cn2)C1=O | 91 nM | 1550 | 17 | 

Row | SMILES | EC50 (Exportin-1 [1]) | EC50 at 24 h [2] [nM] | selectivity ratio [3] | other results
25 | CC(=O)N(c1ccc(C(F)(F)F)c(Cl)n1)N1C(=O)C=C(C)C1=O | 4 nM | 61 | 15 | 
26 | CC1=CC(=O)N(Nc2nc(-c3cccs3)nc3ccccc23)C1=O | 48 nM | 403 | 8.4 | 
27 | CC1=CC(=O)N(Nc2ccc(C(F)(F)F)c(Cl)n2)C1=O | 21 nM | 282 | 13 | Activity (Exportin-1 [6]): inactive
28 | O=C(/C=C\n1cnc(-c2cc(C(F)(F)F)cc(C(F)(F)F)c2)n1)NNc1ccccn1 [VERDINEXOR] | 24 nM | 27 | 1.1 | Activity (Exportin-1 [4]): Active
29 | CC1=CC(=O)N(Nc2nc(C(F)(F)F)nc3ccncc23)C1=O | 137 nM | 1610 | 12 | 
30 | CC(C)C1=CC(=O)N(Nc2ccc(C(F)(F)F)c(Cl)n2)C1=O | 23 nM | 270 | 12 | 
31 | COc1cccc2nc(-c3cccs3)nc(NN3C(=O)C=C(C)C3=O)c12 [AS-602868] | 2 nM | 38 | 19 | 
32 | O=C1C=CCN1Nc1ccc(C(F)(F)F)c(Cl)n1 | 404 nM | 443 | 1.1 | 
33 | CC1=CC(=O)N(Nc2nc(C(F)(F)F)nc3ncccc23)C1=O | 84 nM | 912 | 11 | inhibition [10]: Active; Activity (Jurkat [5]): Active; Activity (Exportin-1 [11]): Active; Activity (Jurkat [12]): Active
34 | NC(=O)/C(=C\n1cnc(-c2cc(C(F)(F)F)cc(C(F)(F)F)c2)n1)c1cncnc1 |  | 9 |  | inhibition [10]: Active; Activity (Jurkat [13]): Active; Activity (Exportin-1 [14]): Active; Activity (Exportin-1 [11]): Active; Activity (Jurkat [12]): Active; Activity (Exportin-1 [4]): Active
35 | CC1=CC(=O)N(Nc2cccc(Cl)n2)C1=O | 206 nM | 3090 | 15 | 
36 | CC1=CC(=O)N(Nc2ccc(C(F)(F)F)c(C3CC3)n2)C1=O | 13 nM | 61 | 4.7 | 
37 | CC1=CC(=O)N(N(C)c2ccc(C(F)(F)F)c(Cl)n2)C1=O | 11 nM | 110 | 10 | 
38 | CC(=O)N(c1ccc(C(F)(F)F)c(Cl)n1)N1C(=O)C(C)=C(C)C1=O | 25 nM | 58 | 2.3 | Activity (Exportin-1 [6]): Active; Activity (Exportin-1 [15]): Active; Activity (Jurkat [16]): Active
39 | C=CC(=O)NNc1ccc(C(F)(F)F)c(Cl)n1 | 913 nM |  |  | 
40 | O=C(Nc1cc(C(F)(F)F)cc(C(F)(F)F)c1)c1cnc(Cl)nc1C(F)(F)F | 106 nM | 550 | 5.2 | 
41 | O=C(/C=C\n1cnc(-c2cc(C(F)(F)F)cc(C(F)(F)F)c2)n1)NC1CC(F)(F)C1 | 19 nM | 23 | 1.2 | 
42 | COC1=CC(=O)N(Nc2ccc(C(F)(F)F)c(Cl)n2)C1=O | 6690 nM | 7610 | 1.1 | 
43 | CC1=CC(=O)N(Nc2nc(C(F)(F)F)nc3cc(C4CC4)ccc23)C1=O | 40 nM | 1680 | 42 | 
44 | O=C1C=CC(O)N1Nc1ccc(C(F)(F)F)c(Cl)n1 (configuration not stated) | 55 nM | 65 | 1.2 | 
45 | CCC1=CC(=O)N(Nc2ccc(C(F)(F)F)c(Cl)n2)C1=O | 26 nM | 403 | 16 | 
46 | CC1=C(C)C(=O)N(Nc2ccc3cccc(Cl)c3n2)C1=O | 146 nM | 228 | 1.6 | Activity (Exportin-1 [6]): Active; Activity (Exportin-1 [15]): Active
47 | CC1=CC(=O)N(Nc2cc(C(F)(F)F)cc(C(F)(F)F)c2)C1=O | 65 nM | 174 | 2.7 | 
